Assay results: patent publication US12329827B2, “Devices, compositions and related methods for accelerating and enhancing bone repair” (THE REGENTS OF THE UNIVERSITY OF MICHIGAN, priority 2015, dated 2025)

Experiments:
[1] = test system: murine mandibular DO model; assay: Mandibular distraction osteogenesis model, DFO injections into the regenerate gap (Example I); type: in vivo, Sprague-Dawley rats
Text: The effectiveness of DFO in enhancing regenerate vascularity at a full consolidation period (28 days) in a murine mandibular DO model was established. To investigate whether this augmentation in vascularity would function to accelerate consolidation without compromising regenerate quality or strength, consolidation periods prior to μCT imaging and biomechanical testing (BMT) were progressively shortened. Three time points (14 d, 21 d and 28 d) were selected and six groups of Sprague-Dawley rats (n=60) were equally divided into control (C) and experimental (E) groups for each time period. Each group underwent external fixator placement, mandibular osteotomy, and a 5.1 mm distraction. During distraction, the experimental groups were treated with DFO injections into the regenerate gap. After consolidation, mandibles were imaged and tension tested to failure. ANOVA was conducted between groups, and p<0.05 was considered statistically significant. […] The benefit of treatment was further substantiated by a striking 100% increase in the number of clinically appreciated bony unions at this early time-period (C:4/10 vs. E:8/10, FIG. 2) (see, e.g., Donneys, Alexis, et al., Bone 55.2 (2013): 384-390).

[2] = test system: human umbilical vein endothelial (HUVEC) cells exposed to radiation; assay: Tubule formation of irradiated HUVEC cells in Matrigel (Example III); type: cell-based
Protocol: The effect of DFO on endothelial cells exposed to radiation in vitro was investigated. […] Four groups of human umbilical vein endothelial (HUVEC) cells (control, radiated, radiated+low dose DFO, or radiated+high dose DFO) were incubated in Matrigel and video recorded in real-time over 12 hours. DFO groups received either 25 or 50 μM doses at the time of incubation. Tubule formation was photographed at 100× magnification every four hours. Tubule numbers between groups were compared using ANOVA with p≤0.05 considered statistically significant. A severe diminution in endothelial tubule formation after radiotherapy was observed. Specifically, tubule formation was diminished 30%, 34%, and 27% respectively, compared to control values (p=0.01, at 4, 8, and 12 hours). The effects of radiation were strikingly remediated by treatment with high-dose DFO. […] These findings were clearly observed with real-time recording. […] This evidence supports the contention that DFO strongly remediates the effects of radiation on endothelial tubule formation (see, e.g., Donneys, Alexis, et al., Plastic and Reconstructive Surgery 131.5S (2013): 141).

[3] = test system: irradiated mandible fracture; assay: Fracture healing in the irradiated mandible, DFO injected into callus site (Example II); type: in vivo, rats
Text: The effects of radiation on bone formation and healing are mediated through the mechanisms of vascular damage, direct cellular depletion and diminished function of osteocytes. Over time, this accumulated damage predisposes patients to the debilitating problem of late pathologic fractures and non-unions. Here, the use of DFO was employed to bolster the vascular response during bone healing in this setting. It was posited that the untoward effects of radiotherapy on vascular density and osteocyte count and ultimately the mineralization and biomechanical strength of our bone would be improved with the addition of DFO. 12 rats received fractionated radiotherapy to left hemi-mandibles. After recovery, fracture repair ensued with external fixator placement and mandibular osteotomy. DFO was injected into the callus site every other day from post-operative days 4-12. A 40-day healing period was allowed prior to vessel perfusion, PCT, BMT, and histologic processing. Mandibles were dissected and gross union was assessed. Union was defined as bony bridging and the absence of motion across the fracture site. Outcome data was analyzed with ANOVA, and p≤0.05 was statistically significant. The DFO group was compared with two other groups: fracture-Fx and radiated fracture-XFx (n=12, 12).

[4] = test system: irradiated mandibular fractures; assay: Irradiated mandibular fracture, implanted nano-DFO vs standard DFO (Example V); type: in vivo, Rats; conditions: radiated fracture, 40-day healing
Protocol: Rats (n=44) were divided into 4 groups. Fracture, radiated fracture, radiated fracture with standard DFO and radiated fracture with nano-DFO. Radiated groups received radiotherapy 2 weeks prior to mandibular osteotomy. The nano-DFO group received implantation of the drug at the time of surgery. Following a 40-day healing period, mandibles were assessed for bony-union, imaged with μCT, and mechanically tested to failure. ANOVA was used for comparison and (p<0.05).

## CC(=O)N(O)CCCCCNC(=O)CCC(=O)N(O)CCCCCNC(=O)CCC(=O)N(O)CCCCCN [DFO, N′-{5-[Acetyl(hydroxy)amino]pentyl}-N-[5-({4-[(5-aminopentyl)(hydroxy)amino]-4-oxobutanoyl}amino)pentyl]-N-hydroxysuccinamide]
[1]; 14 days of consolidation
  Bone Mineral Density (BMD) vs non-treated controls: significant increases
  Bone Volume Fraction (BVF) vs non-treated controls: significant increases
  Ultimate Load (UL) vs non-treated controls: significant increases
  increase in the number of bony unions vs non-treated controls: 100%
[1]; 14 days of consolidation, unions/animals
  number of clinically appreciated bony unions: 8/10
[1]; 14 days with treatment
  BVF, BMD, Yield and UL at 14 days vs fully consolidated 28 d control group: comparable
[1]; 28 days
  bony union rate: 100%
[2]; high dose DFO (50 μM), 4, 8 and 12 hours, p=0.02
  tubule formation vs radiated cells: significantly increased
[2]; high dose DFO (50 μM), each time point
  tubule formation vs normal (control) levels: reached or exceeded normal levels
[2]; high-dose DFO (50 μM), real-time recording
  time of incubation to organization of cultures: ≤ 2 h
[3]; 40-day healing
  BMT and mineralization metrics vs Fx group: no difference
  BMT and mineralization metrics vs XFx group: significant increase
  Vessel Number, Thickness and Separation: significant restorative effects
  increase in bony unions vs XFx: 42%
[3]; 40-day healing, p=0.029
  Vessel Volume vs XFx: significant restoration to control level
[3]; 40-day healing, Fx 100%, XFx 25%
  bony union: 67%
[3]; histomorphometry, p=0.000
  empty lacunae vs XFx: decrease
  osteocyte count vs XFx: significant restoration to control level
[4]
  Bony Unions: 67%
  radiation-induced decreases in all metrics: remediated
